Assay results published in ChEMBL document CHEMBL1201862, “PubChem BioAssay data set” (2004).
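Step 1: Grow cells in 96-well plates. Step 2: Expose to compound for 48 hours at 5 concentrations. Step 3: Interpolate endpoints linearly; if unreached, use highest concentration. GI50 = concentration required for 50% inhibition of growth.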 Activity calls are given as the source filed them. Cut-off read from the data, not from the text of the source: active = GI50 up to about 1.1 µM and inactive = higher.

Columns and labels:
Test in all cases: NCI-60 cell line screen, 48 h
BT-549 = test system: BT-549
COLO 205 = test system: COLO 205
HCC 2998 = test system: HCC 2998
HCT-116 = test system: HCT-116
Hs-578T = test system: Hs-578T
KM12 = test system: KM12
MCF7 = test system: MCF7
MDA-N = test system: MDA-N
MOLT-4 = test system: MOLT-4
Malme-3M = test system: Malme-3M
NCI-H460 = test system: NCI-H460
NCI/ADR-RES = test system: NCI/ADR-RES
OVCAR-3 = test system: OVCAR-3
RXF 393 = test system: RXF 393
SF-295 = test system: SF-295
SF-539 = test system: SF-539
SK-MEL-28 = test system: SK-MEL-28
SK-MEL-5 = test system: SK-MEL-5
TK-10 = test system: TK-10
UACC-257 = test system: UACC-257

Measured: GI50

O=C(O)c1cc(N(Cc2ccccc2O)Cc2cc(O)ccc2O)ccc1O [LAVENDUSTIN A]
inactive: BT-549 6.21 µM | COLO 205 > 100 µM | HCC 2998 > 100 µM | HCT-116 > 100 µM | Hs-578T 19.8 µM | KM12 > 100 µM | MCF7 > 100 µM | MDA-N > 100 µM | MOLT-4 > 100 µM | Malme-3M > 100 µM | NCI-H460 > 100 µM | NCI/ADR-RES > 100 µM | OVCAR-3 > 100 µM | RXF 393 > 100 µM | SF-295 > 100 µM | SF-539 > 100 µM | SK-MEL-28 > 100 µM | SK-MEL-5 > 100 µM | TK-10 > 100 µM | UACC-257 > 100 µM
